BigSolDB 2.1

c1ccc2c(c1)sc1ccccc12
solubility (mole fraction)
Settings | in acetonitrile | in ethanol | in formic acid | in isopropanol | in methanol | in n-butanol
278.15 K | 0.00454 | 0.00347 | 0.000475 | 0.00245 | 0.00126 | 0.00485
283.15 K | 0.00611 | 0.00433 | 0.000578 | 0.00347 | 0.00163 | 0.00621
288.15 K | 0.00845 | 0.00529 | 0.000668 | 0.00436 | 0.00192 | 0.00788
293.15 K | 0.0128 | 0.00619 | 0.000756 | 0.00577 | 0.00242 | 0.00999
298.15 K | 0.0157 | 0.0075 | 0.000881 | 0.00703 | 0.0029 | 0.0132
303.15 K | 0.0189 | 0.00919 | 0.000995 | 0.00874 | 0.00331 | 0.016
308.15 K | 0.0241 | 0.0105 | 0.00112 | 0.0111 | 0.00406 | 0.0192
313.15 K | 0.0321 | 0.0127 | 0.00126 | 0.0136 | 0.00478 | 0.0242
318.15 K | 0.0402 | 0.0148 | 0.0014 | 0.0162 | 0.00573 | 0.0303
323.15 K | 0.0506 | 0.0174 | 0.00157 | 0.0202 | 0.00668 | 0.0381
328.15 K | 0.0639 | 0.0206 | 0.00177 | 0.0249 | 0.00795 | 0.0458
